Measurements taken from patent publication US12428420B2, “Tricyclic heterocycles as FGFR inhibitors” (Incyte Corporation, priority 2021, dated 2025).

Assays:
[1] = target: wild-type un-phosphorylated FGFR3 protein (Homo sapiens, UniProt P22607); test: FGFR Enzymatic Assay (FRET peptide phosphorylation); type: biochemical; conditions: pre-incubated for 4 hours
Method: The inhibitor potency of the exemplified compounds was determined in an enzyme discontinuous assay that measures peptide phosphorylation using FRET measurements to detect product formation. Inhibitors were serially diluted in DMSO and a volume of 0.2 μL was transferred to the wells of a 384-well plate. A 5 μL/well volume of enzyme isoforms of FGFR (-1, -2, -3 wild-type and mutant isoforms, -4) including phosphorylated and un-phosphorylated proteins diluted in assay buffer (50 mM HEPES, 10 mM MgCl2, 1 mM EGTA, 0.01% Tween-20, 5 mM DTT, pH 7.5) was added to the plate and pre-incubated with inhibitor for 5 to 15 minutes at ambient temperature. Appropriate controls (enzyme blank and enzyme with no inhibitor) were included on the plate. The reaction was initiated by the addition of a 5 μL/well volume containing both biotinylated [sequence] peptide substrate (SEQ ID NO: 1) and ATP in assay buffer. The 10 μL/well reaction concentration of the peptide substrate was 500 nM whereas the ATP concentration was maintained near or below the ATP Km. The ATP Km values were pre-determined in a separate series of experiments. The reaction plate was incubated at 25° C. for 1 hr and the reactions were ended with the addition of 5 μL/well of quench solution (50 mM Tris, 150 mM NaCl, 0.5 mg/mL BSA, pH 7.8; 45 mM EDTA, 600 nM staurosporin, with Perkin Elmer Lance Reagents at 3.75 nM Eu-antibody PY20 and 180 nM APC-Streptavidin). The plate was allowed to equilibrate for ˜10 minutes at ambient temperature before scanning on a PheraStar plate reader (BMG Labtech) instrument.
Either GraphPad prism or XLfit was used to analyze the data. The IC50 values were derived by fitting the data to a four parameter logistic equation producing a sigmoidal dose-response curve with a variable Hill coefficient. Prism equation: Y=Bottom+(Top−Bottom)/(1+10^((Log IC50−X)*Hill slope)); XLfit equation: Y=(A+((B−A)/(1+((X/C)^D)))) where X is the logarithm of inhibitor concentration and Y is the response.

RT-112/84 cell line = test: Luminescent Viability Assay (CellTiter-Glo); type: cell-based; conditions: RT-112/84 cell line (bladder, FGFR3-TACC3), 3 days
Method: RT112 cells (cell lines and genetic profiles further detailed in Table 2) were purchased from ATCC (Manassas, VA) and maintained in RPMI, 10% FBS (Gibco/Life Technologies). To measure the effect of test compounds on the viability of cells, the cells were plated with RPMI 10% FBS (5×10^3 cells/well/in 50 μL) into black 96-well Greiner polystyrene in the presence or absence of 50 μL of a concentration range of test compounds. After 3 days, 100 μL of CellTiter-Glo Reagent (Promega) was added. Luminescence was read with a TopCount (PerkinElmer). IC50 determination was performed by fitting the curve of percent inhibition versus the log of the inhibitor concentration using the GraphPad Prism 5.0 software.

Chain of wild-type un-phosphorylated FGFR3 protein (P22607 23-806): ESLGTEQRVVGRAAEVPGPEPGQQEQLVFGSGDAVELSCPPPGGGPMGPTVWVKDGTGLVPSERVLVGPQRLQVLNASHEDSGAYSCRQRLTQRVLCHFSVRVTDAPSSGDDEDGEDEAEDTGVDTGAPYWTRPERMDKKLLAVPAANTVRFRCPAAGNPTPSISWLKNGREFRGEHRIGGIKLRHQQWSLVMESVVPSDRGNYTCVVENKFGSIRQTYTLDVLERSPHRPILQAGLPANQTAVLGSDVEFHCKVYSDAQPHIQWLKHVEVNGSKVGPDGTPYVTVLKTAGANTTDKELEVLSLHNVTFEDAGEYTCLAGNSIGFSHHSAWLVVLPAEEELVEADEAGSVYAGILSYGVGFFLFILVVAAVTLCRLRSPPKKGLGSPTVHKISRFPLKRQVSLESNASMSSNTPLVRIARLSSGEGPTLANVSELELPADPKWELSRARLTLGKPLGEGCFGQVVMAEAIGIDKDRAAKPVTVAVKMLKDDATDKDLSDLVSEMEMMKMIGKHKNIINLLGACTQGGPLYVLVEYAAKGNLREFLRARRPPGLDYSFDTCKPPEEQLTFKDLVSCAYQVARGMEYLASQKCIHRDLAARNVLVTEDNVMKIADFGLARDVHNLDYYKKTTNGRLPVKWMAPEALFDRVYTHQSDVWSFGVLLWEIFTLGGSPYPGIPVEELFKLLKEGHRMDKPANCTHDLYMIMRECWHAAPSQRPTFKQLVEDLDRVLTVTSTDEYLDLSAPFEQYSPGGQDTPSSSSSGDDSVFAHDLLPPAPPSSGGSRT

IC50 [1]	Structure (SMILES)	IC50 (RT-112/84 cell line; Homo sapiens, RT112/84, 72 h)	IC50 (RT-112/84 cell line)
< 1 nM	CC(C#N)n1cc(-c2cnc3ccn4c(CO)c(-c5c(Cl)cccc5Cl)nc4c3c2)cn1 (single isomer, unassigned) [17 peak 1]	< 10 nM	–
< 1 nM	CC(C#N)n1cc(-c2cnc3ccn4c(CO)c(-c5c(Cl)cccc5Cl)nc4c3c2)cn1 (single isomer, unassigned) [17 peak 2]	–	< 10 nM
1 to 5 nM	CC(O)Cn1cc(-c2cnc3ccn4c(CO)c(-c5c(Cl)cccc5Cl)nc4c3c2)cn1 (single isomer, unassigned) [18 peak 1]	10 to 50 nM	–
1 to 5 nM	CC(O)Cn1cc(-c2cnc3ccn4c(CO)c(-c5c(Cl)cccc5Cl)nc4c3c2)cn1 (single isomer, unassigned) [18 peak 2]	–	10 to 50 nM
< 1 nM	CC(CC#N)n1cc(-c2cnc3ccn4c(CO)c(-c5c(Cl)cccc5Cl)nc4c3c2)cn1 (single isomer, unassigned) [23 peak 1]	10 to 50 nM	–
< 1 nM	CC(CC#N)n1cc(-c2cnc3ccn4c(CO)c(-c5c(Cl)cccc5Cl)nc4c3c2)cn1 (single isomer, unassigned) [23 peak 2]	–	10 to 50 nM
1 to 5 nM	O=S1(=O)CCCC(n2cc(-c3cnc4ccn5c(CO)c(-c6c(Cl)cccc6Cl)nc5c4c3)cn2)C1 (single isomer, unassigned) [26 peak 1]	10 to 50 nM	–
< 1 nM	O=S1(=O)CCCC(n2cc(-c3cnc4ccn5c(CO)c(-c6c(Cl)cccc6Cl)nc5c4c3)cn2)C1 (single isomer, unassigned) [26 peak 2]	–	< 10 nM
1 to 5 nM	OCc1c(-c2c(Cl)cccc2Cl)nc2c3cc(-c4cnn(Cc5ccncn5)c4)cnc3ccn12 [Example 1, (2-(2,6-Dichlorophenyl)-9-(1-(pyrimidin-4-ylmethyl)-1H-pyrazol-4-yl)imidazo[2,1-J][1,6]naphthyridin-3-yl)methanol]	10 to 50 nM	–
< 1 nM	N#Cc1cncc(Cn2cc(-c3cnc4ccn5c(CO)c(-c6c(Cl)cccc6Cl)nc5c4c3)cn2)c1 [Example 2, 5-((4-(2-(2,6-Dichlorophenyl)-3-(hydroxymethyl)imidazo[2,1-f][1,6]naphthyridin-9-yl)-1H-pyrazol-1-yl)methyl)nicotinonitrile]	10 to 50 nM	–
< 1 nM	N#Cc1ccc(Cn2cc(-c3cnc4ccn5c(CO)c(-c6c(Cl)cccc6Cl)nc5c4c3)cn2)cn1 [Example 3, 5-((4-(2-(2,6-Dichlorophenyl)-3-(hydroxymethyl)imidazo[2,1-f][1,6]naphthyridin-9-yl)-1H-pyrazol-1-yl)methyl)picolinonitrile]	< 10 nM	–
< 1 nM	N#Cc1cc(Cn2cc(-c3cnc4ccn5c(CO)c(-c6c(Cl)cccc6Cl)nc5c4c3)cn2)ccn1 [Example 4, 4-((4-(2-(2,6-Dichlorophenyl)-3-(hydroxymethyl)imidazo[2,1-f][1,6]naphthyridin-9-yl)-1H-pyrazol-1-yl)methyl)picolinonitrile]	< 10 nM	–
1 to 5 nM	OCc1c(-c2c(Cl)cccc2Cl)nc2c3cc(-c4cnn(Cc5ccnc(C(F)(F)F)c5)c4)cnc3ccn12 [Example 5, (2-(2,6-Dichlorophenyl)-9-(1-((2-(trifluoromethyl)pyridin-4-yl)methyl)-1H-pyrazol-4-yl)imidazo[2,1-f][1,6]naphthyridin-3-yl)methanol]	< 10 nM	–
1 to 5 nM	O=C(c1ccc(-c2cnc3ccn4c(CO)c(-c5c(Cl)cccc5Cl)nc4c3c2)cc1)N1CCOCC1 [Example 6, (4-(2-(2,6-Dichlorophenyl)-3-(hydroxymethyl)imidazo[2,1-f][1,6]naphthyridin-9-yl)phenyl)(morpholino)methanone]	10 to 50 nM	–
1 to 5 nM	O=C(c1ccc(-c2cnc3ccn4c(CO)c(-c5c(Cl)cccc5Cl)nc4c3c2)cc1)N1C[C@@H]2C[C@H]1CO2 [Example 7, ((1S,4S)-2-Oxa-5-azabicyclo[2.2.1]heptan-5-yl)(4-(2-(2,6-dichlorophenyl)-3-(hydroxymethyl)imidazo[2,1-f][1,6]naphthyridin-9-yl)phenyl)methanone]	10 to 50 nM	–
1 to 5 nM	O=C(CO)N1CCN(Cc2ccc(-c3cnc4ccn5c(CO)c(-c6c(Cl)cccc6Cl)nc5c4c3)cc2)CC1 [Example 8, 1-(4-(4-(2-(2,6-Dichlorophenyl)-3-(hydroxymethyl)imidazo[2,1-f][1,6]naphthyridin-9-yl)benzyl)piperazin-1-yl)-2-hydroxyethan-1-one]	10 to 50 nM	–
1 to 5 nM	CC(=O)N1CCN(Cc2ccc(-c3cnc4ccn5c(CO)c(-c6c(Cl)cccc6Cl)nc5c4c3)cc2)CC1 [Example 9, 1-(4-(4-(2-(2,6-Dichlorophenyl)-3-(hydroxymethyl)imidazo[2,1-f][1,6]naphthyridin-9-yl)benzyl)piperazin-1-yl)ethan-1-one]	10 to 50 nM	–
1 to 5 nM	O=C(CO)N1CCN(c2ccc(-c3cnc4ccn5c(CO)c(-c6c(Cl)cccc6Cl)nc5c4c3)cc2)CC1 [Example 10, 1-(4-(4-(2-(2,6-Dichlorophenyl)-3-(hydroxymethyl)imidazo[2,1-f][1,6]naphthyridin-9-yl)phenyl)piperazin-1-yl)-2-hydroxyethan-1-one]	10 to 50 nM	–
1 to 5 nM	Cc1cccc(Cl)c1-c1nc2c3cc(-c4cnn(C5CCN(C)CC5)c4)cnc3ccn2c1CO [Example 11, (2-(2-Chloro-6-methylphenyl)-9-(1-(1-methylpiperidin-4-yl)-1H-pyrazol-4-yl)imidazo[2,1-J][1,6]naphthyridin-3-yl)methanol]	10 to 50 nM	–
< 1 nM	CN(C)C(=O)c1ccc(Cn2cc(-c3cnc4ccn5c(CO)c(-c6c(Cl)cccc6Cl)nc5c4c3)cn2)cn1 [Example 12, 5-((4-(2-(2,6-Dichlorophenyl)-3-(hydroxymethyl)imidazo[2,1-f][1,6]naphthyridin-9-yl)-1H-pyrazol-1-yl)methyl)-N,N-dimethylpicolinamide]	< 10 nM	–
1 to 5 nM	Cc1c(-c2c(Cl)cccc2Cl)nc2c3cc(-c4cnn(C5CN(C(=O)c6cn(C)nn6)C5)c4)cnc3ccn12 [Example 13, (3-(4-(2-(2,6-Dichlorophenyl)-3-methylimidazo[2,1-J][1,6]naphthyridin-9-yl)-1H-pyrazol-1-yl)azetidin-1-yl)(1-methyl-1H-1,2,3-triazol-4-yl)methanone]	10 to 50 nM	–
1 to 5 nM	Cc1c(-c2c(Cl)cccc2Cl)nc2c3cc(-c4cnn(C5CN(C(=O)c6nnn(C)n6)C5)c4)cnc3ccn12 [Example 14, (3-(4-(2-(2,6-Dichlorophenyl)-3-methylimidazo[2,1-J][1,6]naphthyridin-9-yl)-1H-pyrazol-1-yl)azetidin-1-yl)(2-methyl-2H-tetrazol-5-yl)methanone]	10 to 50 nM	–
1 to 5 nM	CCn1cc(-c2cnc3ccn4c(CO)c(-c5c(Cl)cccc5Cl)nc4c3c2)cn1 [Example 15, (2-(2,6-Dichlorophenyl)-9-(1-ethyl-1H-pyrazol-4-yl)imidazo[2,1-f][1,6]naphthyridin-3-yl)methanol]	< 10 nM	–
1 to 5 nM	CC(C)(C#N)n1cc(-c2cnc3ccn4c(CO)c(-c5c(Cl)cccc5Cl)nc4c3c2)cn1 [Example 16, 2-(4-(2-(2,6-Dichlorophenyl)-3-(hydroxymethyl)imidazo[2,1-f][1,6]naphthyridin-9-yl)-1H-pyrazol-1-yl)-2-methylpropanenitrile]	10 to 50 nM	–
1 to 5 nM	CN(C)C(=O)Cn1cc(-c2cnc3ccn4c(CO)c(-c5c(Cl)cccc5Cl)nc4c3c2)cn1 [Example 19, 2-(4-(2-(2,6-Dichlorophenyl)-3-(hydroxymethyl)imidazo[2,1-f][1,6]naphthyridin-9-yl)-1H-pyrazol-1-yl)-N,N-dimethylacetamide]	10 to 50 nM	–
< 1 nM	CC(=O)N1CCC(n2cc(-c3cnc4ccn5c(CO)c(-c6c(Cl)cccc6Cl)nc5c4c3)cn2)CC1 [Example 20, 1-(4-(4-(2-(2,6-Dichlorophenyl)-3-(hydroxymethyl)imidazo[2,1-f][1,6]naphthyridin-9-yl)-1H-pyrazol-1-yl)piperidin-1-yl)ethan-1-one]	< 10 nM	–
1 to 5 nM	COCC(=O)N1CCC(n2cc(-c3cnc4ccn5c(CO)c(-c6c(C)cccc6Cl)nc5c4c3)cn2)CC1 [Example 21, 1-(4-(4-(2-(2-Chloro-6-methylphenyl)-3-(hydroxymethyl)imidazo[2,1-f][1,6]naphthyridin-9-yl)-1H-pyrazol-1-yl)piperidin-1-yl)-2-methoxyethan-1-one]	< 10 nM	–
1 to 5 nM	Cc1cccc(Cl)c1-c1nc2c3cc(-c4cnn(CC(C)(C)O)c4)cnc3ccn2c1CO [Example 22, 1-(4-(2-(2-Chloro-6-methylphenyl)-3-(hydroxymethyl)imidazo[2,1-f][1,6]naphthyridin-9-yl)-1H-pyrazol-1-yl)-2-methylpropan-2-ol]	10 to 50 nM	–
1 to 5 nM	C[C@H](CO)n1cc(-c2cnc3ccn4c(CO)c(-c5c(Cl)cccc5Cl)nc4c3c2)cn1 [Example 24, (R)-2-(4-(2-(2,6-Dichlorophenyl)-3-(hydroxymethyl)imidazo[2,1-f][1,6]naphthyridin-9-yl)-1H-pyrazol-1-yl)propan-1-ol]	10 to 50 nM	–
< 1 nM	OCc1c(-c2c(Cl)cccc2Cl)nc2c3cc(-c4cnn(CC5(F)CCOCC5)c4)cnc3ccn12 [Example 25, (2-(2,6-Dichlorophenyl)-9-(1-((4-fluorotetrahydro-2H-pyran-4-yl)methyl)-1H-pyrazol-4-yl)imidazo[2,1-J][1,6]naphthyridin-3-yl)methanol]	< 10 nM	–
